≈ marks a conversion by molar mass, not a printed value.
Legend:
[1] = Aqueous solubility measured by HPLC; assay type: physicochemical
wild-type HIV-1 (IIIB) = assay type: cell-based; conditions: selective index, CC50 vs EC50 IIIB
[2] = aqueous medium at pH 7.4 (buffer not named), pH 7.4

Row | SMILES | solubility [1, 2] [µg/mL] | SI (wild-type HIV-1 (IIIB)) | solubility ([1]; aqueous medium at pH 2.0 (buffer not named), pH 2) [µg/mL]
1 | Cc1cc(C#N)cc(C)c1Oc1cc(Nc2ccc(C#N)cc2)c(N)cc1CO [7a] | < 1 | 114,019 | 
2 | Cc1cc(C#N)cc(C)c1Oc1cc(Nc2ccc(C#N)cc2)c(N)cc1CNC1CC1 [7c] |  | 1,142 | 285 (≈ 673 µM)
3 | Cc1cc(C#N)cc(C)c1Oc1cc(Nc2ccc(C#N)cc2)c(N)cc1CNCCCO [7d] |  | 2,475 | 
4 | COCc1cc(N)c(Nc2ccc(C#N)cc2)cc1Oc1c(C)cc(C#N)cc1C [7g] | < 1 |  | 
5 | CC(=O)OCc1cc(N)c(Nc2ccc(C#N)cc2)cc1Oc1c(C)cc(C#N)cc1C [7h] | < 1 |  | 
6 | COCc1cc(N)c(Nc2ccc(C#N)cc2)cc1Oc1c(C)cc(/C=C/C#N)cc1C [11a] | < 1 | 8,763 | 
7 | CC(=O)OCc1cc(N)c(Nc2ccc(C#N)cc2)cc1Oc1c(C)cc(/C=C/C#N)cc1C [11b] | < 1 | 117,439 | 
8 | COCc1cc(N)c(Nc2ccc(C#N)cc2)cc1Oc1c(C)cc(CCC#N)cc1C [12a] | < 1 | >61,538 | 
9 | CC(=O)OCc1cc(N)c(Nc2ccc(C#N)cc2)cc1Oc1c(C)cc(CCC#N)cc1C [12b] | < 1 | 46,667 | 

From publication PMC4137035 (Bioorganic & medicinal chemistry letters, 2014)
